Data set [1] deals with human reconstructed epidermis model EpiDerm. Kind of data set: Extended skin irritation test in reconstructed human epidermis EpiDerm. It is filed as cell-based. The settings on record: for Il-1α in culture medium: medium after first 24 hours. On the procedure: Extended Skin Irritation Tests on Reconstructed Human Epidermis-Exposure Time Extended to 7 Days.
In order to perform extended skin irritation (safety) tests on the reconstructed human epidermis, the exposure time to the tested compounds was extended to 2 and 7 days in the human reconstructed epidermis model EpiDerm™ from MatTek. The epidermis was cultured according to the manufacturer's recommendations, using appropriate multi-well plates and culture media. Solutions of the tested compounds were applied to the epidermis using a positive displacement pipette and distributed using a sterile glass bulb headed Pasteur pipette. […] The epidermis was cultured in an incubator ensuring appropriate humidity, temperature (37° C.) and CO2 concentration (5%). The medium was replaced daily. After an appropriate incubation time, i.e. 2 days or 7 days, the epidermis was rinsed with sterile DPBS and incubated with MTT (Thiazolyl Blue Tetrazolium bromide) solution at 37° C. for 3 hours. After this time, a purple color of formazan was observed, correlated with tissue viability. […] Moreover, in the medium collected after the first 24 hours of EpiDerm epidermis culture, the level of interleukin 1α (Il-1α), which is a mediator of inflammation, was determined. Its level correlates with the unfavorable (irritating) effect of the tested substances on the epidermis. The level of IL-1α was determined using the Cayman Elisa test.

The subject of data set [2] is keratinocytes (HaCaT). As to the kind of experiment: Safety, LDH test in keratinocytes. Format: cell-based. The settings on record: 48 hours, vs Triton X-100. The procedure:
(§1) In order to test the safety of the compounds, both normal human cells were used: keratinocytes (HaCaT), fibroblasts (BJ), primary melanocytes that occur in the skin, as well as human cancer cells: the hepatocarcinoma line HepG2 and the neuroblastoma line SH-SY5Y, which are considered a model for the assessment of hepatocytotoxicity and neurocytotoxicity. The concentrations of the tested compounds in the range of […] were used in the studies. The cell lines used in the research were purchased from the American Type Culture Collection (ATCC) and were cultured in media recommended by the manufacturer with the addition of FBS and antibiotics in an incubator ensuring appropriate culture conditions, i.e. humidity, temperature and CO2 concentration. Cells were seeded into multiwell plates and incubated with the test compounds for 48 hours. After this time, MTT and LDH tests were performed to assess cell viability. The MTT test is based on the ability to transform the substrate: [3-(4,5-dimethyl-2-thiazolyl)-2,5-diphenyl-2H-tetrazolium bromide into a colored product only by living cells. The absorbance at 570 nm, which corresponds to the absorption maximum for the product, is directly proportional to cell viability. The LDH test is based on testing the activity of the enzyme lactate dehydrogenase in the culture medium, which is released from cells as a result of damage to the cell membrane, e.g. as a result of cell death. Triton X-100 was used as a positive control in the test. The determination is colorimetric, the substrate is transformed by the released enzyme into a colored product, an increase in absorbance indicates a larger amount of the released enzyme, and thus confirms greater damage to cell membranes. Tables 7 and 8 present the results obtained, which correspond to the viability of cells incubated with the compounds in relation to the viability of cells constituting a control sample, i.e. incubated with the solvent (DMSO) at the same concentration as in the case of the groups tested in the MTT test or in relation to the results obtained for the Triton X-100 positive control in the LDH test. They indicate that the compounds are safe at the concentrations tested.

In data set [3] the test system is fibroblasts (BJ). As to the kind of experiment: Safety, LDH test in fibroblasts. The settings on record: 48 hours, vs Triton X-100. It is filed as cell-based. On the procedure:
as §1

The subject of data set [4] is primary melanocytes. Kind of data set: Safety, MTT test in primary melanocytes. Format: cell-based. The settings on record: 48 hours. On the procedure:
as §1

In data set [5] the test system is hepatocarcinoma HepG2. Kind of data set: Safety, MTT test in HepG2. Format: cell-based. Conditions: 48 hours. On the procedure: as §1
In data set [6] the test system is neuroblastoma SH-SY5Y. Kind of data set: Safety, MTT test in SH-SY5Y. Conditions: 48 hours. It is filed as cell-based. On the procedure:
as §1
(In general: Formazan colour is commonly taken as a measure of viable cells.)

For data set [7], the system named is neuroblastoma SH-SY5Y. Kind of data set: Safety, LDH test in SH-SY5Y. It is filed as cell-based. The settings on record: 48 hours, vs Triton X-100. On the procedure:
as §1

In data set [8] the test system is CHO-K1 cells. Kind of data set: Cytotoxicity (MTT) in CHO-K1 cells before the micronucleus test. It is filed as cell-based, Chinese hamster. Conditions: 24 hours. On the procedure:
The assay was performed using a Chinese hamster ovary cell line (CHO-K1) purchased from the American Type Culture Collection (ATCC). The cells were cultured in F-12K medium with the addition of 10% fetal bovine serum (FBS) and antibiotics (streptomycin/penicillin) in an incubator at 37° C. and 5% CO2 concentration). Before the actual micronucleus test, a cytotoxicity assessment was performed to ensure that the actual test was performed only at safe concentrations. For this purpose, cells were transferred to 96-well plates and incubated with the tested compounds for 24 hours. After this time, the MTT test was performed and cell viability was assessed in comparison to the control group (cells cultured with DMSO at the same concentration as in the case of the tested samples).

SMILES strings stand for the structures.

Regarding `O=C(/C=C/c1ccc(Cl)cc1)NCCCCCO` [Compound A-111, (2E)-3-(4-chlorophenyl)-N-(5-hydroxypentyl)prop-2-enamide], the “Viability [% of control, mean ± SD] 2 days” value is listed as 88.42 ± 1.25 % of control in data set [1] (0.1% in 50% PEG (10 μL)), 92.02 ± 3.47 % of control in data set [1] (0.5% in 50% PEG (10 μL)) and 98.56 ± 11.78 % of control in data set [1] (1.0% in 50% PEG (10 μL)). Moreover, the entries for the “Viability [% of control, mean ± SD] 7 days” value in data set [1] (0.1% in 50% PEG (10 μL)), in data set [1] (0.5% in 50% PEG (10 μL)) and in data set [1] (1.0% in 50% PEG (10 μL)) were 107.77 ± 3.12 % of control, 113.85 ± 4.03 % of control and 100.41 ± 1.52 % of control, respectively. The “Il-1α in culture medium” value in data set [1] (1.0% in 50% PEG (10 μL)) is 15.89 ± .057 pg/mL. Also, the “LDH, Keratinocytes (HaCaT)” value in data set [2] (100 μM) was 4.69 percentage of positive control; in data set [2] (150 μM), 4.43 percentage of positive control; in data set [2] (200 μM), 6.49 percentage of positive control; in data set [2] (250 μM) it was 13.55 percentage of positive control. The “LDH, Fibroblasts (BJ)” value in data set [3] (100 μM) is 5.25 percentage of positive control; in data set [3] (150 μM) it was 5.37 percentage of positive control; in data set [3] (200 μM) it was 8.43 percentage of positive control; in data set [3] (250 μM), 14.90 percentage of positive control. The “MTT, Primary melanocytes” value in data set [4] (100 μM) is on record as 104.51 ± 1.19 % of solvent control; in data set [4] (150 μM) it was 103.09 ± 1.79 % of solvent control; in data set [4] (200 μM) it was 99.25 ± 1.92 % of solvent control; in data set [4] (250 μM) it was 93.39 ± 1.60 % of solvent control. For the same molecule, the “MTT, Hepatocarcinoma HepG2” value in data set [5] (100 μM) is 101.10 ± 6.01 % of solvent control; in data set [5] (150 μM), 97.87 ± 3.27 % of solvent control; in data set [5] (200 μM), 98.19 ± 3.27 % of solvent control; in data set [5] (250 μM), 96.27 ± 2.57 % of solvent control. Also, the “MTT, Neuroblastoma SH-SY5Y” value is reported as 100.14 ± 3.22 % of solvent control in data set [6] (100 μM), 99.32 ± 3.36 % of solvent control in data set [6] (150 μM), 100.55 ± 2.31 % of solvent control in data set [6] (200 μM) and 99.93 ± 4.36 % of solvent control in data set [6] (250 μM). Also, the “LDH, Neuroblastoma SH-SY5Y” value in data set [7] (100 μM) is listed as 4.90 percentage of positive control; in data set [7] (150 μM), 4.61 percentage of positive control; in data set [7] (200 μM) it was 5.98 percentage of positive control; in data set [7] (250 μM) it was 6.77 percentage of positive control. Besides, the “% Viability [mean], CHO-K1” value is 86.1% in data set [8] (100 μM), 95.6% in data set [8] (150 μM) and 98.6% in data set [8] (200 μM).
Turning to `O=C(/C=C/c1ccccc1)NCCCCCO` [Compound A-133, (2E)-N-(5-hydroxypentyl)-3-phenylprop-2-enamide], the “Viability [% of control, mean ± SD] 2 days” value in data set [1] (1.0% in 50% PEG (10 μL)) is recorded as 107.19 ± 7.45 % of control. The “Viability [% of control, mean ± SD] 7 days” value in data set [1] (1.0% in 50% PEG (10 μL)) was 107.26 ± 21.82 % of control. Also, in data set [1] (1.0% in 50% PEG (10 μL)), the “Il-1α in culture medium” value worked out at 34.99 ± 1.17 pg/mL. In addition, the “LDH, Keratinocytes (HaCaT)” value in data set [2] (100 μM) is 3.23 percentage of positive control; in data set [2] (150 μM), 3.08 percentage of positive control; in data set [2] (200 μM) it was 6.38 percentage of positive control; in data set [2] (250 μM), 19.58 percentage of positive control. For the same molecule, the “LDH, Fibroblasts (BJ)” value in data set [3] (100 μM) is given as 5.00 percentage of positive control; in data set [3] (150 μM), 4.47 percentage of positive control; in data set [3] (200 μM) it was 14.72 percentage of positive control; in data set [3] (250 μM), 28.31 percentage of positive control. For the same molecule, the “MTT, Primary melanocytes” value in data set [4] (100 μM) is 103.69 ± 2.57 % of solvent control; in data set [4] (150 μM), 101.88 ± 2.47 % of solvent control; in data set [4] (200 μM), 97.05 ± 2.96 % of solvent control; in data set [4] (250 μM), 88.88 ± 2.26 % of solvent control. Moreover, the “MTT, Hepatocarcinoma HepG2” value in data set [5] (100 μM) is on record as 104.96 ± 7.60 % of solvent control; in data set [5] (150 μM) it was 100.66 ± 7.39 % of solvent control; in data set [5] (200 μM), 99.09 ± 1.60 % of solvent control; in data set [5] (250 μM), 98.92 ± 2.34 % of solvent control. Moreover, the “MTT, Neuroblastoma SH-SY5Y” value in data set [6] (100 μM) is recorded as 101.50 ± 3.33 % of solvent control; in data set [6] (150 μM) it was 100.75 ± 3.01 % of solvent control; in data set [6] (200 μM), 100.62 ± 5.99 % of solvent control; in data set [6] (250 μM) it was 100.41 ± 1.87 % of solvent control. Further, the “LDH, Neuroblastoma SH-SY5Y” value in data set [7] (100 μM) is listed as 5.33 percentage of positive control; in data set [7] (150 μM) it was 6.93 percentage of positive control; in data set [7] (200 μM), 8.49 percentage of positive control; in data set [7] (250 μM), 13.32 percentage of positive control. Further, the “% Viability [mean], CHO-K1” value in data set [8] (100 μM) amounted to 94.6%; in data set [8] (150 μM), 97.2%; in data set [8] (200 μM) it was 89.1%.
Turning to `O=C(/C=C/c1ccccc1)NCCCCCCO` [H-425/21, (E)-N-(6-hydroxyhexyl)cinnamic acid amide], the “Viability [% of control, mean ± SD] 2 days” value in data set [1] (1.0% in 50% PEG (10 μL)) is reported as 99.75 ± 15.49 % of control. In addition, the “Viability [% of control, mean ± SD] 7 days” value in data set [1] (1.0% in 50% PEG (10 μL)) is 104.01 ± 1.11 % of control. The “Il-1α in culture medium” value in data set [1] (1.0% in 50% PEG (10 μL)) stood at 60.29 ± 1.08 pg/mL. Besides, the figures for the “% Viability [mean], CHO-K1” value in data set [8] (100 μM), in data set [8] (150 μM) and in data set [8] (200 μM) were 87.6%, 83.8% and 88.0%, respectively.

For the origin of these results see US20250263376A1, “(E)-N-CINNAMOYLAMINOALKANOLS WITH MELANOGENESIS INHIBITORY ACTIVITY” (Uniwersytet Jagiellonski, priority 2024, published 2025).
